Measurements as given in US5626867A, “Liposomes with a negative excess charge” (Max-Planck Gesellschaft zur Forderung der Wissenschaften …, priority 1992, dated 1997).

Key:
in vivo [1] = conditions: mouse, iv, 5.7 mg/kg
Method: Female NMR-I mice (28-32 g, 6-8 weeks) were obtained from the Animal Breeding Institute, Hannover Germany. The same doses (5.7 mg/kg) were injected in each case into the cordal vein of the mice. Each treatment group was composed of 3 animals. After 1, 24 and 72 hours the mice were anaesthetized with CO2. Blood was collected from the mice by puncture of the heart and stored in heparinized Eppendorf vessels. Tissue samples from the mice (liver, heart etc.) were rinsed in 0.9% NaCl solution and stored at -70° C.
In order to detect doxorubicin and its metabolites in the individual organs, the tissue samples (about 200 mg in each case) were homogenized with a micro-dismembrator (Braun Melsungen AG, Germany). Doxorubicin and its metabolites were treated with an extraction solution at pH 3 (16.5% w/v AgNO3 in acetonitrile/water; 6:4, v/v), in order to release the anthracyclines from a complex with DNA and to precipitate the proteins. After addition of an internal standard (epirubicin) and centrifugation, the supernatant was applied directly to the HPLC column.

in vivo [2] = experiment: in vivo; design: species or system NMR-I mice; conditions: mouse, iv, 5.7 mg/kg
Method: Each treatment group was composed of 3 animals. […] The plasma samples were analyzed by the procedure of Mross et al., (J. Chromatograph. 530 (1990), 192-199). […] The columns were dried for 10 minutes at 10 mbar. […] The residue was taken up in 50 μl (0.02 mol/l Na phosphate/acetonitrile, pH 3.9; 7:3, v/v) and analyzed by means of HPLC using a 4.6 mm×25 cm Merck Lichrocart C 18 RP 5 μm column. The flow rate was 1.5 ml/min. The excitation wavelength was 480 nm and the emission wavelength was 580 nm.

[3] = clinical use; cited from earlier work

SMILES: COc1cccc2c1C(=O)c1c(O)c3c(c(O)c1C2=O)C[C@@](O)(C(=O)CO)C[C@@H]3O[C@H]1C[C@H](N)[C@H](O)[C@H](C)O1 [free doxorubicin, doxorubicin]
- remaining at 1 h (in vivo [1]): 23%
- concentration at 1 h (in vivo [2]): 500 ng/mL
- cardiac toxicity [3]: high cardiac toxicity
